Measurements published in ChEMBL document CHEMBL1240295, “Specificity and mechanism of action of some commonly used protein kinase inhibitors” (Biochem J, 2000).

What was measured:
[1] = Inhibition of PHK from rabbit skeletal muscle; type: tissue-based, Oryctolagus cuniculus, Muscle tissue
[2] = Inhibition of bovine heart PKA; design: species or system Bos taurus
Oryctolagus cuniculus [3] = species on record: Oryctolagus cuniculus; settings: at 10 µM
Description: Inhibition of rabbit MKK1 expressed in Escherichia coli at 10 uM

[4] = target: Mitogen-activated protein kinase 1 (Homo sapiens) (UniProt P28482); settings: at 10 µM
Description: Inhibition of Gst-tagged human MAPK2/ERK2 expressed in Escherichia coli at 10 uM

[5] = target: Mitogen-activated protein kinase 8 (Homo sapiens) (UniProt P45983); settings: at 10 µM
Description: Inhibition of Gst-tagged human JNK1a1 expressed in Escherichia coli at 10 uM

[6] = target: Mitogen-activated protein kinase 14 (Homo sapiens) (UniProt Q16539); settings: at 10 µM
Description: Inhibition of Gst-tagged human SAPK2a/p38 expressed in Escherichia coli at 10 uM

[7] = target: Mitogen-activated protein kinase 11 (Homo sapiens) (UniProt Q15759); settings: at 10 µM
Description: Inhibition of Gst-tagged human SAPK2b/p38--beta-2 expressed in Escherichia coli at 10 uM

[8] = target: T1, Mitogen-activated protein kinase 12 (Homo sapiens) (UniProt P53778); settings: at 10 µM
T1 sequence (whole entry): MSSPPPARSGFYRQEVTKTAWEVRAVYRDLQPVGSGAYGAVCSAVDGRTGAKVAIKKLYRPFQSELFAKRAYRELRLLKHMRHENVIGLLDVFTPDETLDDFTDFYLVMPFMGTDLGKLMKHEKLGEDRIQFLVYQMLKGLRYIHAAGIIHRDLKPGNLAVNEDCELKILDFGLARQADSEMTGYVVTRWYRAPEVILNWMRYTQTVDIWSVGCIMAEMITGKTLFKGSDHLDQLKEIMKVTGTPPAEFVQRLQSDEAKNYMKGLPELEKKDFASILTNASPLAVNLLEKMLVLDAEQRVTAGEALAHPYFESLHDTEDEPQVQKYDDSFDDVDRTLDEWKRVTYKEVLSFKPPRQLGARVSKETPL
Description: Inhibition of Gst-tagged human SAPK3/p38gamma expressed in Escherichia coli at 10 uM

[9] = target: T2, Mitogen-activated protein kinase 13 (Homo sapiens) (UniProt O15264); settings: at 10 µM
T2 sequence (whole entry): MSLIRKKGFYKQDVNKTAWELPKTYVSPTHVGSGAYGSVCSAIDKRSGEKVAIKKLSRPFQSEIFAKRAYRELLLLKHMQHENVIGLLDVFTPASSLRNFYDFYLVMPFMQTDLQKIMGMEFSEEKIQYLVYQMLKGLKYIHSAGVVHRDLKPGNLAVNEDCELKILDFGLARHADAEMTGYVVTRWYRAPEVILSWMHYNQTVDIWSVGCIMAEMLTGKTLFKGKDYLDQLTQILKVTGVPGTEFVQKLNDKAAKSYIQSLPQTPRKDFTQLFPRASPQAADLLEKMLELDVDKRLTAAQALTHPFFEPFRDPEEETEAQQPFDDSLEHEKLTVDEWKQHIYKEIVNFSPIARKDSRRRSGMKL
Description: Inhibition of Gst-tagged human SAPK4/p38delta expressed in Escherichia coli at 10 uM

Oryctolagus cuniculus [10] = species on record: Oryctolagus cuniculus; settings: Muscle tissue, at 10 µM
Description: Inhibition of MAPKAPK1b from rabbit skeletal muscle at 10 uM

[11] = target: MAP kinase-activated protein kinase 2 (Homo sapiens, UniProt P49137); settings: at 10 µM
Description: Inhibition of Gst-tagged human MAPKAPK2 expressed in Escherichia coli at 10 uM

[12] = target: Ribosomal protein S6 kinase alpha-5 (Homo sapiens, UniProt O75582); settings: Sf9, at 10 µM
Description: Inhibition of His-tagged human MSK1 expressed in Sf9 cells at 10 uM

[13] = target: T3, MAP kinase-activated protein kinase 5 (Homo sapiens) (UniProt Q8IW41); settings: Sf9, at 10 µM
T3 sequence (whole entry): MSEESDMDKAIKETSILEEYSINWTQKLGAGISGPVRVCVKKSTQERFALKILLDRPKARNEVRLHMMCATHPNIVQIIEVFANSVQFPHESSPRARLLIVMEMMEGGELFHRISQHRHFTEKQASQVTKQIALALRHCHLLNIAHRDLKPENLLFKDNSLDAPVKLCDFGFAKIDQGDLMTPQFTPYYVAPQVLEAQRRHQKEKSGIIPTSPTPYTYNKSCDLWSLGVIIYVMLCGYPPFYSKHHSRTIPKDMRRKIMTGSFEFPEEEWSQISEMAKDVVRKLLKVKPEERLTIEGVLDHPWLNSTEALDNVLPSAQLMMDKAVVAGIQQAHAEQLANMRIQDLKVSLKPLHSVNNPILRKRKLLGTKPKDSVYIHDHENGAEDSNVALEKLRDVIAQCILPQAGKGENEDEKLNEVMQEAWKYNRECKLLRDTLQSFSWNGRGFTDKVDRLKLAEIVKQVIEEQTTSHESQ
Description: Inhibition of His-tagged human PRAK expressed in Sf9 cells at 10 uM

Bos taurus = species on record: Bos taurus; settings: at 10 µM
Description: Inhibition of bovine heart PKA at 10 uM

[14] = target: Protein kinase C alpha type (Homo sapiens, UniProt P17252); settings: at 10 µM
Description: Inhibition of His-tagged human PKCalpha expressed in Escherichia coli at 10 uM

[15] = target: 3-phosphoinositide-dependent protein kinase 1 (Homo sapiens) (UniProt O15530); settings: Sf21, at 10 µM
[16] = target: RAC-alpha serine/threonine-protein kinase (Homo sapiens) (UniProt P31749); settings: Sf9, at 10 µM
Description: Inhibition of human PKBalpha expressed in SF9 cells at 10 uM

[17] = target: T4, Serine/threonine-protein kinase Sgk1 (Homo sapiens) (UniProt O00141); settings: Sf9, at 10 µM
T4 sequence (whole entry): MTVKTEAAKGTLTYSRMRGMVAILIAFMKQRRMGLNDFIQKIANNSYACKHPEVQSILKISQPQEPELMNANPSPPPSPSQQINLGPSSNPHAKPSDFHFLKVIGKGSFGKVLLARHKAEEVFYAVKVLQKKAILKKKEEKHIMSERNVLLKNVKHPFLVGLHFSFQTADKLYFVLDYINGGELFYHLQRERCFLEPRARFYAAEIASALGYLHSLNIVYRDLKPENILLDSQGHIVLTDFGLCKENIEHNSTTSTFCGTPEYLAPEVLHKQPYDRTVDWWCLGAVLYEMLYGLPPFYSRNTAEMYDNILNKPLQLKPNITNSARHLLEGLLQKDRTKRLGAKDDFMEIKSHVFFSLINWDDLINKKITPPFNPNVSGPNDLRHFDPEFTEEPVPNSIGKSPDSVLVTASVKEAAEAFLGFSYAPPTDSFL
Description: Inhibition of His-tagged human SGK expressed in Sf9 cells at 10 uM

[18] = target: Ribosomal protein S6 kinase beta-1 (Homo sapiens, UniProt P23443); settings: at 10 µM
Description: Inhibition of His-tagged human S6K1 expressed in Escherichia coli at 10 uM

[19] = target: Glycogen synthase kinase-3 beta (Homo sapiens, UniProt P49841); settings: Sf21, at 10 µM
Description: Inhibition of His-tagged human GSK3b expressed in Sf21 cells at 10 uM

[20] = target: Rho-associated protein kinase 2 (Rattus norvegicus) (UniProt Q62868); settings: Sf9, at 10 µM
Description: Inhibition of rat ROCK2 expressed in Sf9 cells at 10 uM

Rattus norvegicus = species on record: Rattus norvegicus; settings: at 10 µM
Description: Inhibition of rat liver AMPK at 10 uM

[21] = target: Casein kinase II (Homo sapiens) (UniProt P67870+P68400+P19784); settings: Sf9, at 10 µM
Description: Inhibition of His-tagged human CK2 expressed in Sf9 cells at 10 uM

Oryctolagus cuniculus [22] = species on record: Oryctolagus cuniculus; settings: Muscle tissue, at 10 µM; remark: listed apart in the source
Description: Inhibition of PHK from rabbit skeletal muscle at 10 uM

[23] = target: Tyrosine-protein kinase Lck (Homo sapiens) (UniProt P06239); settings: Sf9, at 10 µM
Description: Inhibition of His-tagged human LCK expressed in Sf9 cells at 10 uM

[24] = target: T5, Serine/threonine-protein kinase Chk1 (Homo sapiens) (UniProt O14757); settings: at 10 µM
T5 sequence (whole entry): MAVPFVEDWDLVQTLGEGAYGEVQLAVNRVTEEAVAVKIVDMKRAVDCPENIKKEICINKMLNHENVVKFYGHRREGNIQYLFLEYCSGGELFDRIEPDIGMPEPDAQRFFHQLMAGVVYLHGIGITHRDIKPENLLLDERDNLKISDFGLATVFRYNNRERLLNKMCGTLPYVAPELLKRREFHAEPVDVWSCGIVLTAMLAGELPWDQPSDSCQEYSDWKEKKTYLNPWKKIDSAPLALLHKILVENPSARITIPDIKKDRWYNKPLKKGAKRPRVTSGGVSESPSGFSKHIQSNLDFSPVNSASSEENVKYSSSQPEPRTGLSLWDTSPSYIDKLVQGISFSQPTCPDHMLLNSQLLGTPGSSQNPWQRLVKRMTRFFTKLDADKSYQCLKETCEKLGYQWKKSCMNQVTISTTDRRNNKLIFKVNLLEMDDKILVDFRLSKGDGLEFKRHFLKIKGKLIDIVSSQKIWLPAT
Description: Inhibition of His-tagged human CHK1 expressed in Escherichia coli at 10 uM

Sequence of Mitogen-activated protein kinase 1 (Homo sapiens) (P28482 whole entry): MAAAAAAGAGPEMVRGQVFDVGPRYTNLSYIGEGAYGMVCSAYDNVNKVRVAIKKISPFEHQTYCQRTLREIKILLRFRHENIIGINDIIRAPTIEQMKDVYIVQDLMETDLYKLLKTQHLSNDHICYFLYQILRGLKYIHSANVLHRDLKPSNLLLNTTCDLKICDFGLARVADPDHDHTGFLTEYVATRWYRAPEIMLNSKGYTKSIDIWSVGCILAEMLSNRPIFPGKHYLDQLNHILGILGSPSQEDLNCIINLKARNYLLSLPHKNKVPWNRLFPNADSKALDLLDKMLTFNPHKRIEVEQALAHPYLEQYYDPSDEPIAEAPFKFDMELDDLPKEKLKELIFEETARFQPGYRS
Sequence of Mitogen-activated protein kinase 14 (Homo sapiens) (Q16539 whole entry): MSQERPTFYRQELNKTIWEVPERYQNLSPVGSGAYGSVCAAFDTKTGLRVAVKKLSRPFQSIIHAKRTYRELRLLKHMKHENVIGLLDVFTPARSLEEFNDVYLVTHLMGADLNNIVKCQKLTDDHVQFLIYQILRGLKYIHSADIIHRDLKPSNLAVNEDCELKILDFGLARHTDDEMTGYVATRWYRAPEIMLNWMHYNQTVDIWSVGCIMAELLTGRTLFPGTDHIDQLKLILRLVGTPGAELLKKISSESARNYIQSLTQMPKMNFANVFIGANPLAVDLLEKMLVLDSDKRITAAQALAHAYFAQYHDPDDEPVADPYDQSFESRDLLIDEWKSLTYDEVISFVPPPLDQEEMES
Sequence of Tyrosine-protein kinase Lck (Homo sapiens) (P06239 2-509 limits assumed): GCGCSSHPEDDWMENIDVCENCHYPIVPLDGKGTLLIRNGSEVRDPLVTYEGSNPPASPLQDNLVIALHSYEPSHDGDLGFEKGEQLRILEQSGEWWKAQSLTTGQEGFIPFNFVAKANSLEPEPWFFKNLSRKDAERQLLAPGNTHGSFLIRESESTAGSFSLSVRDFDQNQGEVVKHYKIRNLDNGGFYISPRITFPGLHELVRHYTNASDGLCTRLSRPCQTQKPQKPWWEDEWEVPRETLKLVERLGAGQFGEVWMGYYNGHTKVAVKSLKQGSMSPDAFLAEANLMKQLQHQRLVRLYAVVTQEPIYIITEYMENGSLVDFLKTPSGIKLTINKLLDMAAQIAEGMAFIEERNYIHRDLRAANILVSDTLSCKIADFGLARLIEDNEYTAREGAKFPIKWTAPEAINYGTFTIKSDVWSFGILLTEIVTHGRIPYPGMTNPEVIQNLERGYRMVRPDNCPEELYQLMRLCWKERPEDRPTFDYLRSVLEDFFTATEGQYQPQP
Sequence of MAP kinase-activated protein kinase 2 (P49137 whole entry, looked up): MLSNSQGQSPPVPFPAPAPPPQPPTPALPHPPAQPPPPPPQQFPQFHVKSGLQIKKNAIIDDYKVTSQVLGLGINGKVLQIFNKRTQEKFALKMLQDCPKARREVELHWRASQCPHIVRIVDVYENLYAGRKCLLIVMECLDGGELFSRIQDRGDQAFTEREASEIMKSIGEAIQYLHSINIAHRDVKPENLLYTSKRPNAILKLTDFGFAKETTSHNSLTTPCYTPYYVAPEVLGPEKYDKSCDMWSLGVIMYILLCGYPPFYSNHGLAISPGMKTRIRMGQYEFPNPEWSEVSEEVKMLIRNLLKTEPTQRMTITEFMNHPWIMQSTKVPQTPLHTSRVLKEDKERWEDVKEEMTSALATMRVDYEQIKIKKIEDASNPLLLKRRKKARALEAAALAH
Sequence of Glycogen synthase kinase-3 beta (P49841 whole entry, looked up): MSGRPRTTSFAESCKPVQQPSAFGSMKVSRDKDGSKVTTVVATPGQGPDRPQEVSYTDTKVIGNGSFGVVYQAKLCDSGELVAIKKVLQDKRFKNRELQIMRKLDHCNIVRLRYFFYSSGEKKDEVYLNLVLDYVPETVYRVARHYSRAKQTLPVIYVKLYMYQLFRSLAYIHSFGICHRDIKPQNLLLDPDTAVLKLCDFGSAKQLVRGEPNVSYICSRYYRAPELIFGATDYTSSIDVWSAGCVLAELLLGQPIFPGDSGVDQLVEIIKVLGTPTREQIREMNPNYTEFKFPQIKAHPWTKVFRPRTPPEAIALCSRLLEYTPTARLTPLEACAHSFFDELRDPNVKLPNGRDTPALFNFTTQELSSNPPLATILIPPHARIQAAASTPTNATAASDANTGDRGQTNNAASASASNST
Sequence of Ribosomal protein S6 kinase alpha-5 (O75582 whole entry, looked up): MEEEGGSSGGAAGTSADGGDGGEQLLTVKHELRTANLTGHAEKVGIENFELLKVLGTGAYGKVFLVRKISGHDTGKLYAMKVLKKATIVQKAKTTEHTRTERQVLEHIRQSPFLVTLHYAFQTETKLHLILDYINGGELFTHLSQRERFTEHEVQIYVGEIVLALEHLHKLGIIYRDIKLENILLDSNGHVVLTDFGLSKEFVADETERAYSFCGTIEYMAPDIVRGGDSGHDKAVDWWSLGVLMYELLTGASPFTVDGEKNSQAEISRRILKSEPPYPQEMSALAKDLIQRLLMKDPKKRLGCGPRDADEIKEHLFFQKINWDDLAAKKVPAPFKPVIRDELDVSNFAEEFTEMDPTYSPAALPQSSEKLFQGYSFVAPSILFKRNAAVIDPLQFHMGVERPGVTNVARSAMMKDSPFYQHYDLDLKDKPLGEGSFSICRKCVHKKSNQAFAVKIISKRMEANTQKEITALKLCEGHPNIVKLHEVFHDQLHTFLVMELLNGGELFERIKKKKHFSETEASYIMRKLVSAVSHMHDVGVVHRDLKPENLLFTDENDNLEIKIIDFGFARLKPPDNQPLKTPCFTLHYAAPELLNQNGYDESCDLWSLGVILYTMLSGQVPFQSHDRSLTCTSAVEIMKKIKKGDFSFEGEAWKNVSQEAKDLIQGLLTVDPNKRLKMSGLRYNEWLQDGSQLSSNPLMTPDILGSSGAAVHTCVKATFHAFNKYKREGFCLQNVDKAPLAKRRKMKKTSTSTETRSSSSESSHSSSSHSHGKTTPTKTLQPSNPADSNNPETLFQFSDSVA
Sequence of Rho-associated protein kinase 2 (Rattus norvegicus) (Q62868 whole entry, looked up): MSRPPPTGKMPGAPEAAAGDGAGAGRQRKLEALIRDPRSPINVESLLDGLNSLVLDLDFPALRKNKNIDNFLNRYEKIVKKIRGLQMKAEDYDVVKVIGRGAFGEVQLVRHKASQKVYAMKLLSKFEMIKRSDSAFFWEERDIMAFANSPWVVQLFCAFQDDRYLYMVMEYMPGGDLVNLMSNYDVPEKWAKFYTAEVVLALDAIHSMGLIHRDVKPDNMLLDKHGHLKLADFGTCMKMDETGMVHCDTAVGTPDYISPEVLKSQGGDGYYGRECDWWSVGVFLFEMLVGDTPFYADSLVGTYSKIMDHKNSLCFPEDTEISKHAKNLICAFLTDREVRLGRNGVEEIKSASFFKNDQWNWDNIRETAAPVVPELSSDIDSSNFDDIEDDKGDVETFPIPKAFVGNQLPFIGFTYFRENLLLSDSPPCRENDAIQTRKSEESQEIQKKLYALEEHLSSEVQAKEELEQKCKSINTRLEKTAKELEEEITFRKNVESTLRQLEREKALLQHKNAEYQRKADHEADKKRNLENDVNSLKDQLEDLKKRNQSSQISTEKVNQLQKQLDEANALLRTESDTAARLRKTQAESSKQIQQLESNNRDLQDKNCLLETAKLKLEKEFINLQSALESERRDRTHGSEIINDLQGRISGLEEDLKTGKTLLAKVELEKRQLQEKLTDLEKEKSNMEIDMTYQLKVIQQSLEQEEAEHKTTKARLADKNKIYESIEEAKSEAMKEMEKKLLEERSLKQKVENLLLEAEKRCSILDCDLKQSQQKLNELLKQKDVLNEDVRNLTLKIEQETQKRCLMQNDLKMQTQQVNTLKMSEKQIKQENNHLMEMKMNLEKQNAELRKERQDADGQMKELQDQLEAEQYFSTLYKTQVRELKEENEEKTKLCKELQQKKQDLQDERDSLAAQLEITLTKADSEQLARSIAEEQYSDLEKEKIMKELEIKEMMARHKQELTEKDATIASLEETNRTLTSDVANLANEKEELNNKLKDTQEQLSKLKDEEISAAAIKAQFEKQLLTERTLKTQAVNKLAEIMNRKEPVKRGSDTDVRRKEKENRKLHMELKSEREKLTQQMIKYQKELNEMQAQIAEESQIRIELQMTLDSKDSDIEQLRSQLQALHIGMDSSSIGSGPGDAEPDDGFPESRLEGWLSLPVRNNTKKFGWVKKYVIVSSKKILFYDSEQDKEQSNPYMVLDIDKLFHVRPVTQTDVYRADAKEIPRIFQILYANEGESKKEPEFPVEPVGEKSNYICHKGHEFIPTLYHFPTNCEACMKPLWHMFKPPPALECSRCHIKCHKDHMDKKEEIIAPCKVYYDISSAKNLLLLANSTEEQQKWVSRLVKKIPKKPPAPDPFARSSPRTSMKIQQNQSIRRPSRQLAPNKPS

In the case of `CCCCCCOC(=O)[C@@]1(O)C[C@H]2O[C@]1(C)n1c3ccccc3c3c4c(c5c6ccccc6n2c5c31)C(=O)NC4`, the IC50 [1] is reported as 11 nM, the IC50 [2] is reported as 3300 nM and the residual activity (Oryctolagus cuniculus [3]) is reported as 20%. The residual activity [4] was 57%, the residual activity [5] was 81% and the residual activity [6] was 103%. For the same compound, the residual activity [7] was 98%, the residual activity [8] was 95% and the residual activity [9] was 95%. The level, % of control (Oryctolagus cuniculus [10]) was 23%, the residual activity [11] was 62% and the residual activity [12] was 39%. For the same compound, the residual activity [13] was 58%, the residual activity (Bos taurus) was 39% and the residual activity [14] was 87%. It also gave a residual activity [15] of 7%, a residual activity [16] of 36% and a residual activity [17] of 29%. The residual activity [18] was 66%, the residual activity [19] was 39% and the residual activity [20] was 84%. The residual activity (Rattus norvegicus) was 22%, the residual activity [21] was 95% and the level, % of control (Oryctolagus cuniculus [22]) was 0%. For the same compound, the residual activity [23] was 46% and the residual activity [24] was 13%.
